Test results as given in patent US20260242563A1, “DEGRADABLE CROSSLINKING AGENT” (NAGASE CHEMTEX CORPORATION, priority 2023, published 2026).

assay: Water solubility of degradation products in ion exchange water at 20° C.; conditions: 0.3 g in 10 mL of ion exchange water

Structure (SMILES) | water solubility
CC(C)(c1ccc(OCC(O)COc2ccc(C(=O)O)cc2)cc1)c1ccc(OCC(O)COc2ccc(C(=O)O)cc2)cc1 (centres unmarked) [Formula (C)] | insoluble
O=C(O)c1cc(C(=O)O)cc(C(=O)O)c1 [trimesic acid] | insoluble

same assay, conditions: 0.5 g in 10 mL of ion exchange water

Structure (SMILES) | water solubility
O=C(O)CCCCCO [6-hydroxyhexanoic acid] | soluble

same assay, conditions: 2 g in 10 mL of ion exchange water

Structure (SMILES) | water solubility
OCCOCCOCCO [triethylene glycol] | soluble

same assay, conditions: one gram in 10 mL of ion exchange water

Structure (SMILES) | water solubility
O=C(O)c1cc(C(=O)O)cc(S(=O)(=O)O)c1 [5-sulfoisophthalic acid] | soluble
OCCOCCOCCO [triethylene glycol] | soluble
OCCCCCCO [1,6-hexanediol] | soluble
NCCCCCCN [hexamethylenediamine] | soluble

assay: Adding a small amount of 12% sodium hypochlorite aqueous solution to the cross-linking agent compound; assay type: physicochemical; conditions: small amount of 12% sodium hypochlorite aqueous solution added to the compound

Structure (SMILES) | degradation product generated (confirmed by 1H-NMR) | observation upon adding oxidizing agent
C=CCOC(=O)NNC(=O)CCC(NC(=O)NNC(=O)c1cc(C(=O)NNC(=O)NC(CCC(=O)NNC(=O)OCC=C)C(=O)NNC(=O)OCC=C)cc(S(=O)(=O)[O-])c1)C(=O)NNC(=O)OCC=C.[Na+] (centres unmarked) [Formula (A7)] | sodium 5-sulfoisophthalate and glutamic acid | foaming occurred
NNC(=O)CCC(NC(=O)NNC(=O)c1cc(C(=O)NNC(=O)NC(=O)NC(CCC(=O)NN)C(=O)NN)cc(S(=O)(=O)[O-])c1)C(=O)NN.[Na+] (centres unmarked) [Formula (A6)] | sodium 5-sulfoisophthalate | foaming occurred
C=CCOC(=O)NNC(=O)CCC(NC(=O)NNC(=O)CCC(=O)NNC(=O)NC(CCC(=O)NNC(=O)OCC=C)C(=O)NNC(=O)OCC=C)C(=O)NNC(=O)OCC=C (centres unmarked) [Formula (A8)] | succinic acid and glutamic acid | foaming occurred
C=C(C)C(=O)NNC(=O)c1ccc(OCC(O)COc2ccc(C(C)(C)c3ccc(OCC(O)COc4ccc(C(=O)NNC(=O)C(=C)C)cc4)cc3)cc2)cc1 (centres unmarked) [Formula (B), reference compound] | compound of formula (C) | foaming occurred
C=C(C)C(=O)NNC(=O)OCCOCCOCCOC(=O)NNC(=O)C(=C)C [Formula (A1)] | triethylene glycol | foaming occurred
C=CCOC(=O)NNC(=O)OCCCCCCOC(=O)NNC(=O)OCC=C [Formula (A3)] | 1,6-hexanediol | foaming occurred
